Reference: patent publication US10925848B2, “Amide derivative” (Daiichi Sankyo Company, Limited, priority 2017, dated 2021)
pIC50: −log10 of the molar value.

Legend:
[1] = target: tryptophanase of Bacteroides tetaiotaomicron (Bacteroides thetaiotaomicron, UniProt Q8A7N2); test: Tryptophanase enzyme inhibitory activity (LDH-coupled NADH loss); assay type: biochemical; conditions: 10 mM L-tryptophan, 30 min preincubation at 37° C., absorbance at 340 nm
Description: Tryptophanase inhibitory activity was evaluated by a method using lactate dehydrogenase (LDH). The reaction time-dependent reduction in NADH conjugated with the enzymatic reaction, with LDH, of pyruvic acid produced through the enzymatic reaction of L-tryptophan as a substrate with tryptophanase, was measured with a spectrophotometer (Phillips-R S et al., Biochemistry, 23, 6228-6234 (1984)). Enzyme inhibitory activity obtained without adding a test compound (by adding DMSO alone) in the presence of tryptophanase was used as a control. As the enzyme, tryptophanase of Bacteroides tetaiotaomicron (Genbank accession number: HC914434.1) was used.
A test compound solution was prepared by dissolving each test compound in DMSO at concentrations (from 30 mM to 30 nM at 10-fold common ratio). LDH, NADH and L-tryptophan were dissolved, using distilled water, respectively to concentrations of 80 units/mL, 10 mM and 50 mM. Bacteroides tryptophanase was prepared to 30 mg/mL. A potassium phosphate buffer was used as the buffer.
A reaction solution A was dispensed at 284.8 μL per well into a 96-well plate, and the test compound solution was added at 3.2 μL per well to obtain a final concentration of 1/100 (reaction solution B). The reaction solution B was incubated at 37° C. for 30 minutes, L-tryptophan was added thereto at 32 μL per well to obtain a final concentration of […] (reaction solution C), and the enzyme reaction was performed at 37° C. over 30 minutes with absorbance at 340 nm measured for monitoring the NADH loss. Based on the NADH loss, the tryptophanase inhibitory activity of the compound was evaluated.

Bacteroides = test: Indole production suppressing effect in viable bacterium; assay type: cell-based; conditions: 5 mM L-Tryptophan assay medium, anaerobic, indole in culture supernatant, read-out: Bacteroides Indole Production Inhibitory Activity(IC50)
Description: The effect of a tryptophanase inhibitory compound to suppress indole production from a viable bacterium can be evaluated through the following operation.
When E. coli (Eschelicia coli) is used as a strain known to produce indole, the strain is cultured in an LB medium at 37° C. for 12 to 18 hours under anaerobic conditions, and then, suspended in an assay medium (5 mM L-Tryptophan/PBS(+)/25 mM HEPES (pH8)) in such a manner as to obtain O.D. of about 0.3. When bacteroides is used, the strain is cultured in a modified GAM medium at 37° C. for 12 to 18 hours under anaerobic conditions, and then suspended in an assay medium (5 mM L-Tryptophan/PBS(+)/25 mM HEPES (pH8)) in such a manner as to obtain O.D. of about 1.1. The thus obtained viable bacterial suspension prepared to have a final concentration of a compound of 1 μM to 10 mM is dispensed at 200 μL per well into a 96-well plate and cultured at 37° C. for 2 to 4 hours under anaerobic conditions, O.D., an ATP concentration (that can be quantitatively determined by using BacTiter-Glo (Promega Corporation)) and an indole concentration in the culture supernatant (that can be quantitatively determined by utilizing Ehrlich reaction) are measured. The effect of the tryptophanase inhibitory compound to suppress indole production from a viable bacterium can be evaluated depending on the degree of lowering of the indole concentration in the culture supernatant. It can be checked whether or not the effect is derived from a function other than tryptophanase inhibition, such as a bactericidal function or a bacterial growth inhibitory function, depending on lowering of the O.D. or reduction in the ATP concentration or by performing a generally practiced antibacterial activity test (a MIC (minimum growth inhibition concentration) test) using levofloxacin or the like as a positive control.
The activities of inhibiting indole production of the compounds of the respective examples shown in Table 13 were measured by the above-described method using Bacteroides to evaluate the effect of inhibiting indole production.

plasma indoxyl sulfate = test: Effect of reducing plasma indoxyl sulfate concentration in mice; assay type: in vivo; conditions: oral gavage, plasma 6 hours after L-tryptophan
Description: An effect of a tryptophanase inhibitory compound to reduce plasma indoxyl sulfate concentration in a mouse can be evaluated through the following operation.
After fasting male BALB/c mice overnight, a tryptophanase inhibitory compound dissolved or suspended at a concentration of 0.01 to 10 mg/mL in 0.5% methylcellulose (MC) solution used as a solvent and 0.5% MC solution are orally administered by gavage at a volume of 10 mL/kg respectively to test compound groups and to a solvent control group. 30 minutes after the administration of the test compound or the solvent, L-tryptophan, that is, a substrate of tryptophanase, is orally administered by gavage at a dose of 1 to 3 g/kg. The L-tryptophan is suspended in a 0.5% tragacanth solution. For 12 hours after the administration of the L-tryptophan, blood is collected over time from a tail vein by using a hematocrit tube. The thus obtained blood is centrifuged at 11,000 rpm for 5 minutes to collect plasma, and the indoxyl sulfate concentration in the plasma is measured singly by liquid chromatography (fluorescence detection) or its combination with a mass spectrometer used subsequently. Plasma indoxyl sulfate concentration in the test compound group against the plasma indoxyl sulfate concentration in the solvent control group is calculated as, for example, a ratio of the area under a curve of the indoxyl sulfate concentration, and thus, the efficacy of each compound in vivo can be compared.
The indoxyl sulfate concentrations in plasma obtained by using the compounds of the respective examples shown in Table 14 below were measured by the above-described method to evaluate the plasma indoxyl sulfate suppressing effect.

Chain of tryptophanase of Bacteroides tetaiotaomicron (Q8A7N2 entry or part of it, change not shown): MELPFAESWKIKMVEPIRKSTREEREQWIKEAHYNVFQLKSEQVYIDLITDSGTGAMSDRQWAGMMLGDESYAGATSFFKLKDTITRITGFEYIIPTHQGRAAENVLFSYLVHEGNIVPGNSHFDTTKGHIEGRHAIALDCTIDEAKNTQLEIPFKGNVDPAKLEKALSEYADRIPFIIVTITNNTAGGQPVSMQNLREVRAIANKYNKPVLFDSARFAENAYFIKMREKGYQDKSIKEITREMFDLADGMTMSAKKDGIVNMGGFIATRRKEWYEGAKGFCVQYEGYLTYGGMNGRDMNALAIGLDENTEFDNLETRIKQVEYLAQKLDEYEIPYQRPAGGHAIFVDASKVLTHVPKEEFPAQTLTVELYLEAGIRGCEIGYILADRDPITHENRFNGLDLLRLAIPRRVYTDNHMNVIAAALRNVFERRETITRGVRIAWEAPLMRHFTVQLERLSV

Compound: CCC(CC)(NC(=O)c1ccc(N)cc1)C(=O)O [Compound of Example 1, 2-[(4-Aminobenzoyl)amino]-2-ethylbutanoic Acid]
- pIC50 [1]: 4.57

Compound: CCC(CC)(NC(=O)c1ccc(N)c(C)c1)C(=O)O [Compound of Example 2, 2-[(4-Amino-3-methylbenzoyl)amino]-2-ethylbutanoic Acid]
- pIC50 [1]: 5.11

Compound: CCC(CC)(NC(=O)c1cc(C)c(N)c(C)c1)C(=O)O [Compound of Example 3, 2-[(4-Amino-3,5-dimethylbenzoyl)amino]-2-ethylbutanoic Acid]
- pIC50 [1]: 5.10

Compound: CCC(NC(=O)c1ccc(N)c(C)c1)(C(=O)O)C1CC1 (stereo not shown) [Compound of Example 4, 2-[(4-Amino-3-methylbenzoyl)amino]-2-cyclopropyl butanoic Acid]
- pIC50 [1]: 5.77

Compound: CCC(NC(=O)c1ccc(N)c(Cl)c1)(C(=O)O)C1CC1 (stereo not shown) [Compound of Example 5, 2-[(4-Amino-3-chlorobenzoyl)amino]-2-cyclopropyl butanoic Acid]
- pIC50 [1]: 6.00

Compound: CCC(CC)(NC(=O)c1cc(Cl)c(N)cc1OC)C(=O)O [Compound of Example 6, 2-[(4-Amino-5-chloro-2-methoxybenzoyl)amino]-2-ethylbutanoic Acid]
- pIC50 [1]: 6.70
- pIC50 (Bacteroides): > 5.52
- Plasma Indoxyl Sulfate Reduction Effect in Male BALB/c Mouse (Indoxyl sulfate reduction effect in plasma 6 hours after administration of L-tryptophan: ED75-, mg/kg) (plasma indoxyl sulfate): 1 mg/kg

Compound: CCC(CC)(NC(=O)c1cc(F)c(N)c(Cl)c1)C(=O)O [Compound of Example 7, 2-[(4-Amino-3-chloro-5-fluorobenzoyl)amino]-2-ethylbutanoic Acid]
- pIC50 [1]: 5.16

Compound: CCOc1cc(N)c(Cl)cc1C(=O)NC(C)(C)C(=O)O [Compound of Example 8, N-(4-Amino-5-chloro-2-ethoxybenzoyl)-2-methylalanine]
- pIC50 [1]: 5.89

Compound: CC(C)Oc1cc(N)c(Cl)cc1C(=O)NC(C)(C)C(=O)O [Compound of Example 9, N-[4-Amino-5-chloro-2-(propan-2-yloxy)benzoyl)-2-methylalanine]
- pIC50 [1]: 6.41

Compound: CC[C@@](C)(NC(=O)c1cc(Cl)c(N)cc1OC)C(=O)O [Compound of Example 10, (−)-N-(4-Amino-5-chloro-2-methoxybenzoyl)-D-isovaline]
- pIC50 [1]: 5.82
- pIC50 (Bacteroides): > 5.52
- Plasma Indoxyl Sulfate Reduction Effect in Male BALB/c Mouse (Indoxyl sulfate reduction effect in plasma 6 hours after administration of L-tryptophan: ED75-, mg/kg) (plasma indoxyl sulfate): 1 mg/kg

Compound: CCOc1cc(N)c(Cl)cc1C(=O)N[C@](C)(CC)C(=O)O [Compound of Example 11, (−)-N-(4-Amino-5-chloro-2-ethoxybenzoyl)-D-isovaline]
- pIC50 [1]: 7.05
- pIC50 (Bacteroides): > 5.52
- Plasma Indoxyl Sulfate Reduction Effect in Male BALB/c Mouse (Indoxyl sulfate reduction effect in plasma 6 hours after administration of L-tryptophan: ED75-, mg/kg) (plasma indoxyl sulfate): 1 mg/kg

Compound: CC[C@](C)(NC(=O)c1cc(Cl)c(N)cc1OC)C(=O)O [Compound of Example 12, (+)-N-(4-Amino-5-chloro-2-methoxybenzoyl)-L-isovaline]
- pIC50 [1]: 6.51

Compound: CCOc1cc(N)c(Cl)cc1C(=O)N[C@@](C)(CC)C(=O)O [Compound of Example 13, (+)-N-(4-Amino-5-chloro-2-ethoxybenzoyl)-L-isovaline]
- pIC50 [1]: 7.10

Compound: CCCOc1cc(N)c(Cl)cc1C(=O)NC(C)(C)C(=O)O [Compound of Example 14, N-(4-Amino-5-chloro-2-propoxybenzoyl)-2-methylalanine]
- pIC50 [1]: 6.70

Compound: CC[C@@](C)(NC(=O)c1cc(Br)c(N)cc1OC)C(=O)O [Compound of Example 15, (−)-N-(4-Amino-5-bromo-2-methoxybenzoyl)-D-isovaline]
- pIC50 [1]: 6.11
- pIC50 (Bacteroides): > 5.52
- Plasma Indoxyl Sulfate Reduction Effect in Male BALB/c Mouse (Indoxyl sulfate reduction effect in plasma 6 hours after administration of L-tryptophan: ED75-, mg/kg) (plasma indoxyl sulfate): 1 mg/kg

Compound: CC[C@@](C)(NC(=O)c1cc(I)c(N)cc1OC)C(=O)O [Compound of Example 16, (−)-N-(4-Amino-5-iodo-2-methoxybenzoyl)-D-isovaline]
- pIC50 [1]: 6.44
- pIC50 (Bacteroides): > 5.52
- Plasma Indoxyl Sulfate Reduction Effect in Male BALB/c Mouse (Indoxyl sulfate reduction effect in plasma 6 hours after administration of L-tryptophan: ED75-, mg/kg) (plasma indoxyl sulfate): 1 mg/kg

Compound: CC[C@](C)(NC(=O)c1cc(Br)c(N)cc1OC)C(=O)O [Compound of Example 17, (+)-N-(4-Amino-5-bromo-2-methoxybenzoyl)-L-isovaline]
- pIC50 [1]: 6.85

Compound: CC[C@](C)(NC(=O)c1cc(I)c(N)cc1OC)C(=O)O [Compound of Example 18, (+)-N-(4-Amino-5-iodo-2-methoxybenzoyl)-L-isovaline]
- pIC50 [1]: 7.00

Compound: CCOc1cc(N)c(Br)cc1C(=O)N[C@@](C)(CC)C(=O)O [Compound of Example 19, (+)-N-(4-Amino-5-bromo-2-ethoxybenzoyl)-L-isovaline]
- pIC50 [1]: 7.22

Compound: CCOc1cc(N)c(I)cc1C(=O)N[C@@](C)(CC)C(=O)O [Compound of Example 20, (+)-N-(4-Amino-2-ethoxy-5-iodobenzoyl)-L-isovaline]
- pIC50 [1]: 7.30

Compound: CCOc1cc(N)c(Br)cc1C(=O)N[C@](C)(CC)C(=O)O [Compound of Example 21, (−)-N-(4-Amino-5-bromo-2-ethoxybenzoyl)-D-isovaline]
- pIC50 [1]: 7.00
- pIC50 (Bacteroides): > 5.52
- Plasma Indoxyl Sulfate Reduction Effect in Male BALB/c Mouse (Indoxyl sulfate reduction effect in plasma 6 hours after administration of L-tryptophan: ED75-, mg/kg) (plasma indoxyl sulfate): 1 mg/kg

Compound: CCOc1cc(N)c(I)cc1C(=O)N[C@](C)(CC)C(=O)O [Compound of Example 22, (−)-N-(4-Amino-2-ethoxy-5-iodobenzoyl)-D-isovaline]
- pIC50 [1]: 7.10

Compound: CC[C@@](C)(NC(=O)c1cc(C(F)(F)F)c(N)cc1OC)C(=O)O [Compound of Example 26, (−)-N-(4-Amino-2-methoxy-5-(trifluoromethyl)benzoyl)-D-isovaline]
- pIC50 [1]: 6.08

Compound: CC[C@@](C)(NC(=O)c1cc(C)c(N)cc1OC)C(=O)O [Compound of Example 28, N-(4-Amino-2-methoxy-5-methylbenzoyl)-D-isovaline]
- pIC50 [1]: 5.50

Compound: CCOc1cc(N)c(C#N)cc1C(=O)N[C@](C)(CC)C(=O)O [Compound of Example 29, (−)-N-(4-Amino-5-cyano-2-ethoxybenzoyl)-D-isovaline]
- pIC50 [1]: 7.70

Compound: CC[C@@](C)(NC(=O)c1cc(F)c(N)cc1OC)C(=O)O [Compound of Example 30, (−)-N-(4-Amino-5-fluoro-2-methoxybenzoyl)-D-isovaline]
- pIC50 [1]: 5.25

Compound: CC[C@@](C)(NC(=O)c1cc(Cl)c(N)cc1OC(F)F)C(=O)O [Compound of Example 31, (−)-N-[4-Amino-5-chloro-2-(difluoromethoxy)benzoyl]-D-isovaline]
- pIC50 [1]: 6.96

Compound: CCCOc1cc(N)c(F)cc1C(=O)NC(C)(C)C(=O)O [Compound of Example 32, N-(4-Amino-5-fluoro-2-propoxybenzoyl)-2-methylalanine]
- pIC50 [1]: 6.27
